pIC50: −log10 of the molar value.
Tested on: 857933-349-R-J2-PDC complex spheroids, viability
Experiment: Anticancer human tumor 857933-349-R-J2-PDC patient-derived colon adenocarcinoma cell line growth inhibition [GQUAD]
Settings: for pIC50: curve of first compound; for viability, T/C: stronger effect = lower value
How it was run: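 Tumor cells were grown as complex spheroids with HUVEC endothelial cells and mesenchymal stem cells as stroma. G-quadruplex stabilizers were combined with targeted agents over half-log dilutions from near the clinical Cmax, or from 10 microM.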

[1] = second compound 0.0316 µM, first compound 0.0316 µM
[2] = second compound 0.0316 µM, first compound 0.1 µM
[3] = second compound 0.0316 µM, first compound 0.316 µM
[4] = second compound 0.0316 µM, first compound 1 µM
[5] = second compound 0.0316 µM, first compound 3.16 µM
[6] = second compound 0.0316 µM, first compound 10 µM
[7] = second compound 0.1 µM, first compound 0.0316 µM
[8] = second compound 0.1 µM, first compound 0.1 µM
[9] = second compound 0.1 µM, first compound 0.316 µM
[10] = second compound 0.1 µM, first compound 1 µM
[11] = second compound 0.1 µM, first compound 3.16 µM
[12] = second compound 0.1 µM, first compound 10 µM
[13] = second compound 0.316 µM, first compound 0.0316 µM
[14] = second compound 0.316 µM, first compound 0.1 µM
[15] = second compound 0.316 µM, first compound 0.316 µM
[16] = second compound 0.316 µM, first compound 1 µM
[17] = second compound 0.316 µM, first compound 3.16 µM
[18] = second compound 0.316 µM, first compound 10 µM
[19] = second compound 1 µM, first compound 0.0316 µM
[20] = second compound 1 µM, first compound 0.1 µM
[21] = second compound 1 µM, first compound 0.316 µM
[22] = second compound 1 µM, first compound 1 µM
[23] = second compound 1 µM, first compound 3.16 µM
[24] = second compound 1 µM, first compound 10 µM
[25] = second compound 3.16 µM, first compound 0.0316 µM
[26] = second compound 3.16 µM, first compound 0.1 µM
[27] = second compound 3.16 µM, first compound 0.316 µM
[28] = second compound 3.16 µM, first compound 1 µM
[29] = second compound 3.16 µM, first compound 3.16 µM
[30] = second compound 3.16 µM, first compound 10 µM
[31] = second compound 10 µM, first compound 0.0316 µM
[32] = second compound 10 µM, first compound 0.1 µM
[33] = second compound 10 µM, first compound 0.316 µM
[34] = second compound 10 µM, first compound 1 µM
[35] = second compound 10 µM, first compound 3.16 µM
[36] = second compound 10 µM, first compound 10 µM
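Also: spheroids exposed to compounds for one week before readout.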
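For viability, T/C in this document: percent viability relative to vehicle DMSO wells taken as 100%.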

Compound: COc1cccc2c1C(=O)c1c(O)c3c(c(O)c1C2=O)CC(O)(C(=O)CO)CC3OC1CC(N)C(O)C(C)O1 (stereo not drawn) + CN(C)c1ccc(Nc2c3ccc(NC(=O)CCN4CCCC4)cc3nc3cc(NC(=O)CCN4CCCC4)ccc23)cc1
- pIC50 (second compound 0.0316 µM): 6.04
- pIC50 (second compound 0.1 µM): 6.08
- pIC50 (second compound 0.316 µM): 6.18
- pIC50 (second compound 1 µM): 6.15
- pIC50 (second compound 3.16 µM): 6.13
- pIC50 (second compound 10 µM): 6.01
- viability, T/C [1]: 100%
- viability, T/C [2]: 97.1%
- viability, T/C [3]: 76.7%
- viability, T/C [4]: 52.2%
- viability, T/C [5]: 8.8%
- viability, T/C [6]: 0.64%
- viability, T/C [7]: 99.2%
- viability, T/C [8]: 92.8%
- viability, T/C [9]: 79.3%
- viability, T/C [10]: 45.4%
- viability, T/C [11]: 9.85%
- viability, T/C [12]: 0.72%
- viability, T/C [13]: 102%
- viability, T/C [14]: 95.8%
- viability, T/C [15]: 72.7%
- viability, T/C [16]: 37.3%
- viability, T/C [17]: 10.8%
- viability, T/C [18]: 0.64%
- viability, T/C [19]: 103%
- viability, T/C [20]: 86%
- viability, T/C [21]: 76.2%
- viability, T/C [22]: 39.6%
- viability, T/C [23]: 12.5%
- viability, T/C [24]: 0.68%
- viability, T/C [25]: 91.6%
- viability, T/C [26]: 76.8%
- viability, T/C [27]: 73.7%
- viability, T/C [28]: 42.6%
- viability, T/C [29]: 11.9%
- viability, T/C [30]: 0.97%
- viability, T/C [31]: 70.7%
- viability, T/C [32]: 73.4%
- viability, T/C [33]: 67.1%
- viability, T/C [34]: 50.1%
- viability, T/C [35]: 9.58%
- viability, T/C [36]: 1.5%

Compound: O=c1[nH]cc(F)c(=O)[nH]1 + CN(C)c1ccc(Nc2c3ccc(NC(=O)CCN4CCCC4)cc3nc3cc(NC(=O)CCN4CCCC4)ccc23)cc1
- pIC50 (second compound 0.0316 µM): 5.12
- pIC50 (second compound 0.1 µM): 5.03
- pIC50 (second compound 0.316 µM): 5.09
- pIC50 (second compound 1 µM): 5.15
- pIC50 (second compound 3.16 µM): 5.12
- pIC50 (second compound 10 µM): 5.04
- viability, T/C [1]: 104%
- viability, T/C [2]: 96.8%
- viability, T/C [3]: 97%
- viability, T/C [4]: 88.7%
- viability, T/C [5]: 60.6%
- viability, T/C [6]: 46.5%
- viability, T/C [7]: 103%
- viability, T/C [8]: 105%
- viability, T/C [9]: 91.7%
- viability, T/C [10]: 86.4%
- viability, T/C [11]: 61.3%
- viability, T/C [12]: 50%
- viability, T/C [13]: 102%
- viability, T/C [14]: 96.7%
- viability, T/C [15]: 100%
- viability, T/C [16]: 83.7%
- viability, T/C [17]: 64.8%
- viability, T/C [18]: 46.7%
- viability, T/C [19]: 95.3%
- viability, T/C [20]: 91.8%
- viability, T/C [21]: 95.6%
- viability, T/C [22]: 77.7%
- viability, T/C [23]: 63.6%
- viability, T/C [24]: 44.6%
- viability, T/C [25]: 92.9%
- viability, T/C [26]: 80%
- viability, T/C [27]: 92.7%
- viability, T/C [28]: 75.1%
- viability, T/C [29]: 61.7%
- viability, T/C [30]: 46.3%
- viability, T/C [31]: 70.9%
- viability, T/C [32]: 78.9%
- viability, T/C [33]: 77.2%
- viability, T/C [34]: 74.4%
- viability, T/C [35]: 61.4%
- viability, T/C [36]: 49%

Compound: Cn1ncnc1[C@H]1c2n[nH]c(=O)c3cc(F)cc(c23)N[C@@H]1c1ccc(F)cc1 + Cc1cnc(CNC(=O)c2c(=O)c3ccc(N4CCCN(C)CC4)nc3n3c2sc2ccccc23)cn1
- pIC50 (second compound 0.0316 µM): < 6.50
- pIC50 (second compound 0.1 µM): < 6.50
- pIC50 (second compound 0.316 µM): > 9.00
- pIC50 (second compound 1 µM): > 9.00
- pIC50 (second compound 3.16 µM): > 9.00
- pIC50 (second compound 10 µM): > 9.00
- viability, T/C (second compound 0.0316 µM, first compound 0.000999 µM): 88.5%
- viability, T/C (second compound 0.0316 µM, first compound 0.00316 µM): 89.1%
- viability, T/C (second compound 0.0316 µM, first compound 0.00999 µM): 93.4%
- viability, T/C [1]: 95%
- viability, T/C (second compound 0.0316 µM, first compound 0.0999 µM): 88.9%
- viability, T/C [3]: 81.7%
- viability, T/C (second compound 0.1 µM, first compound 0.000999 µM): 59.6%
- viability, T/C (second compound 0.1 µM, first compound 0.00316 µM): 73.6%
- viability, T/C (second compound 0.1 µM, first compound 0.00999 µM): 62.5%
- viability, T/C [7]: 71.9%
- viability, T/C (second compound 0.1 µM, first compound 0.0999 µM): 73.5%
- viability, T/C [9]: 65.6%
- viability, T/C (second compound 0.316 µM, first compound 0.000999 µM): 28.8%
- viability, T/C (second compound 0.316 µM, first compound 0.00316 µM): 27.8%
- viability, T/C (second compound 0.316 µM, first compound 0.00999 µM): 27.1%
- viability, T/C [13]: 22.5%
- viability, T/C (second compound 0.316 µM, first compound 0.0999 µM): 29.8%
- viability, T/C [15]: 31.5%
- viability, T/C (second compound 1 µM, first compound 0.000999 µM): 7%
- viability, T/C (second compound 1 µM, first compound 0.00316 µM): 5.78%
- viability, T/C (second compound 1 µM, first compound 0.00999 µM): 5.4%
- viability, T/C [19]: 5.4%
- viability, T/C (second compound 1 µM, first compound 0.0999 µM): 5.1%
- viability, T/C [21]: 5.12%
- viability, T/C (second compound 3.16 µM, first compound 0.000999 µM): 2.09%
- viability, T/C (second compound 3.16 µM, first compound 0.00316 µM): 2.13%
- viability, T/C (second compound 3.16 µM, first compound 0.00999 µM): 2.38%
- viability, T/C [25]: 2.9%
- viability, T/C (second compound 3.16 µM, first compound 0.0999 µM): 3.1%
- viability, T/C [27]: 2.73%
- viability, T/C (second compound 10 µM, first compound 0.000999 µM): 1.74%
- viability, T/C (second compound 10 µM, first compound 0.00316 µM): 2.35%
- viability, T/C (second compound 10 µM, first compound 0.00999 µM): 2.39%
- viability, T/C [31]: 2.68%
- viability, T/C (second compound 10 µM, first compound 0.0999 µM): 2.08%
- viability, T/C [33]: 2.52%

Compound: CC1COCCN1c1cc(C2(S(C)(=N)=O)CC2)nc(-c2ccnc3[nH]ccc23)n1 (stereo not drawn) + CN(C)c1ccc(Nc2c3ccc(NC(=O)CCN4CCCC4)cc3nc3cc(NC(=O)CCN4CCCC4)ccc23)cc1
- pIC50 (second compound 0.0316 µM): < 5.00
- pIC50 (second compound 0.1 µM): < 5.00
- pIC50 (second compound 0.316 µM): < 5.00
- pIC50 (second compound 1 µM): < 5.00
- pIC50 (second compound 3.16 µM): < 5.00
- pIC50 (second compound 10 µM): < 5.00
- viability, T/C [1]: 104%
- viability, T/C [2]: 108%
- viability, T/C [3]: 102%
- viability, T/C [4]: 87.7%
- viability, T/C [5]: 82.4%
- viability, T/C [6]: 63.2%
- viability, T/C [7]: 106%
- viability, T/C [8]: 102%
- viability, T/C [9]: 101%
- viability, T/C [10]: 94.9%
- viability, T/C [11]: 75.1%
- viability, T/C [12]: 69.2%
- viability, T/C [13]: 103%
- viability, T/C [14]: 99.1%
- viability, T/C [15]: 97.8%
- viability, T/C [16]: 88.8%
- viability, T/C [17]: 86.6%
- viability, T/C [18]: 66.1%
- viability, T/C [19]: 99.2%
- viability, T/C [20]: 94.6%
- viability, T/C [21]: 96.4%
- viability, T/C [22]: 88%
- viability, T/C [23]: 82.5%
- viability, T/C [24]: 62.7%
- viability, T/C [25]: 92.3%
- viability, T/C [26]: 84.9%
- viability, T/C [27]: 94.8%
- viability, T/C [28]: 81.2%
- viability, T/C [29]: 81.6%
- viability, T/C [30]: 59.6%
- viability, T/C [31]: 70.8%
- viability, T/C [32]: 76.8%
- viability, T/C [33]: 77.5%
- viability, T/C [34]: 78%
- viability, T/C [35]: 69.8%
- viability, T/C [36]: 61.4%

From PubChem BioAssay AID2060491 (Molecular Pharmacology Branch, DTP, NCI, 2025)
